Experimental data published in US20240024335A1, “TREATMENT AND PREVENTION OF ANAEMIA OF INFLAMMATION” (Sanquin IP B.V., priority 2020, published 2024).
Entries after “also recorded” stand apart in the source; their conditions may differ.

What was measured:
[1] = in vivo; cited from earlier work
donor RBCs = assay: Flow assay: adhesion of donor RBC to laminin-α5 in response to IL-8 and sera from sepsis patients
sickle cell patients = conditions: Ataga et al.; cited from earlier work

**Q.** With `NC(=O)C(c1ccccc1)(c1ccc(F)cc1)c1ccc(F)cc1` [Senicapoc, 4-fluoro-α-(4-fluorophenyl)-α-phenyl-benzeneacetamide] as the compound, how does the Tolerability [1] read?
**A.** well-tolerated

**Q.** And the “AI-mediated degradation of RBC in vitro” value (donor RBCs; in vitro, see Example 1)?
**A.** counteracts AI-mediated degradation of RBC

**Q.** What about the “Reduction of vaso-occlusive events” value (sickle cell patients) of the same compound?
**A.** did not result in reduction of vaso-occlusive events

**Q.** For `Clc1ccccc1C(c1ccccc1)(c1ccccc1)n1cccn1` [TRAM34, 1-[(2-chlorophenyl)diphenylmethyl]-1H-pyrazole], which “Adhesion of donor RBCs to laminin-α5 in response to IL-8 incubation” value (donor RBCs; RBCs pre-incubated with inhibitor 30 min, then IL-8 30 min at 37° C., FIG. 8B, 8C) is on record?
**A.** inhibited; also recorded: counteracted

**Q.** And the “Adhesion of donor RBCs to laminin-α5 in response to sera of sepsis patients” value (donor RBCs; RBCs pre-incubated with inhibitor 30 min, then sera of sepsis patients 30 min at 37° C., FIG. 8D)?
**A.** inhibited
